The assay concerns the target T1, G9a (Homo sapiens, UniProt Q96KQ7).
T1 sequence (Q96KQ7 1-1210): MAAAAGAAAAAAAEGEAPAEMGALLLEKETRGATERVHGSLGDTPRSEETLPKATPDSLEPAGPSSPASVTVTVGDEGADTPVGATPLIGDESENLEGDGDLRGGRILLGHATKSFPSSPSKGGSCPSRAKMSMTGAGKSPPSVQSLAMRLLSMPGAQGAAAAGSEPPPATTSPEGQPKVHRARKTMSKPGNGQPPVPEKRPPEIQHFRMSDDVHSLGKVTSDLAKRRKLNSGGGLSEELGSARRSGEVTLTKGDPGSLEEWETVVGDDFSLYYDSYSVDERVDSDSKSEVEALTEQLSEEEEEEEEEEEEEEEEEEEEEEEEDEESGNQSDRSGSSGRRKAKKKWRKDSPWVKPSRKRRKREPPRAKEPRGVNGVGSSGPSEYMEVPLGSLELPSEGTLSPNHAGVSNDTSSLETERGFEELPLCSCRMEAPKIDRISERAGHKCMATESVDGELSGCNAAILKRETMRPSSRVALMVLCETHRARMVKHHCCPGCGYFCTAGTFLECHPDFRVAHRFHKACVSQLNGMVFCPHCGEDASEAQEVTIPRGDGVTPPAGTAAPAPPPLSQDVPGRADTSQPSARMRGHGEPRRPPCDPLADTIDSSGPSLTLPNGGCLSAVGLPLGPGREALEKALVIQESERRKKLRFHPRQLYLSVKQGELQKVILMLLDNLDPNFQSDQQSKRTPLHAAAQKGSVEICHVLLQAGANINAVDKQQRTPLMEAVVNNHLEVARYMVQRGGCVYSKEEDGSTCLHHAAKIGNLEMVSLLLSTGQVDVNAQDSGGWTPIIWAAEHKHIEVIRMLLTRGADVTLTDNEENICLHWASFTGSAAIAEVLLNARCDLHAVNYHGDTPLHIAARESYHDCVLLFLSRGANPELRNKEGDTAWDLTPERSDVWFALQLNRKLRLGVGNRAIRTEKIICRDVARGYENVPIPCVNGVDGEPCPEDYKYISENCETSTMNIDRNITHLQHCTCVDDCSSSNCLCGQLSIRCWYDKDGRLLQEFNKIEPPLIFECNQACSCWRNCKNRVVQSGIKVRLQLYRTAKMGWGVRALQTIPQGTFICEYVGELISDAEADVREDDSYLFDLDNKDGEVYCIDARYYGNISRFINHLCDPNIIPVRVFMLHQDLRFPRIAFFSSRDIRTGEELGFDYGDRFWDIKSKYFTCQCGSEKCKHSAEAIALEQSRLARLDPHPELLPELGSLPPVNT
Briefly: G9a AlphaLISA enzymatic activity assay. Type of assay: biochemical. The note with it: 0.15 nM G9a, 10 uM S-adenosyl-methionine, 100 nM biotinylated histone 3 peptide (1-21), 1 h room temperature. The source says: The G9a AlphaLISA assay was used to detect the methyl modifications of a biotinylated histone H3 peptide by the compounds. These modifications are done by the histone methyl transferase activity of the G9a enzyme. The assay consists of reading a chemiluminescent signal at 615 nm; this signal is generated by a laser excitation at 680 nm that transfers a reactive singlet oxygen between the donor beads and acceptor beads. Donor beads are streptavidin conjugated and bind to the biotin on the peptide. Acceptor beads are conjugated with an antibody that recognizes the specific G9a methyl mark on the peptide. If there is a methyl mark on the peptide, the acceptor beads will bind to the peptide. Upon binding, the acceptor beads will be in close proximity (<200 nm) of the donor beads and when the donor beads are excited, the transfer of the oxygen can occur and a strong signal will be generated. If there is no methyl mark, the interaction between beads will not occur and signal will be at background levels.
For the assay, the following buffer was used to set up reactions: 50 mM Tris-HCl pH9, 50 mM NaCl, 0.01% Tween-20 and 1 mM DTT (added fresh prior to starting the reactions). The assay is set up by adding a final concentration of 0.15 nM G9a, 10 uM S-adenosyl-methionine and, 100 nM biotinylated histone 3 peptide (1-21). The reaction is incubated at room temperature for 1 h, and subsequently quenched by the addition of the acceptor beads (anti-H3k9me2 AlphaLISA acceptor beads, PerkinElmer #AL117) at a final concentration of 20 ug/mL. The acceptor beads are incubated for 1 h. After 1 h, the donor beads are added at a final concentration of 20 ug/mL (Alpha Streptavidin donor beads, PerkinElmer #6760002). Donor beads are incubated for 0.5 h. Both donor and acceptor beads are resuspended in AlphaLISA 5× Epigenetics Buffer 1 Kit (PerkinElmer #AL008) prior to addition to the reaction. All manipulations and incubations with the donor and acceptor beads are done in subdued light. Signal is detected in an EnVision plate reader in Alpha mode (See ACS Med Chem Lett. 2014 Jan. 2; 5(2):205-9)
Percent inhibition was calculated for each compound dilution and the concentration that produced 50% inhibition was calculated. This value is presented as the IC50.

From patent US11111243B2, “Azaindole compounds as histone methyltransferase inhibitors” (GLOBAL BLOOD THERAPEUTICS, INC., priority 2017, dated 2021) come the findings set out here.

Structures are written as SMILES. pIC50: −log10 of the molar value. Where a name gives a salt, the structure may show the parent alone.

The pIC50 is the IC50 on a negative log10 scale, so that one unit is a factor of ten. A lower pIC50 goes with a high IC50.

Compound `COc1cc2c(cc1OCCCN1CCCC1)[nH]c1ccnc(C3CC3)c12` [Compound 43, 1-[3-({1-cyclopropyl-8-methoxy-5H-pyrido[4,3-b]indol-7-yl}oxy)propyl]pyrrolidine] gave a pIC50 of 8.89. Consider `COc1cc2c(cc1OCCCN1CCCC1)[nH]c1cncnc12` [Compound 44, 1-[3-({8-methoxy-5H-pyrimido[5,4-b]indol-7-yl}oxy)propyl]pyrrolidine], for which the negative-log IC50 (pIC50) is 6.77. Consider `CCN(C)CCCOc1cc2[nH]c3ccncc3c2cc1OC` [Compound 45, ethyl[3-({8-methoxy-5H-pyrido[4,3-b]indol-7-yl}oxy)propyl]methylamine hydrochloride], for which the pIC50 is 7.25. Next, `CCN(C)CCCOc1cc2[nH]c3ccnc(C4CC4)c3c2cc1OC` [Compound 46, [3-({1-cyclopropyl-8-methoxy-5H-pyrido[4,3-b]indol-7-yl}oxy)propyl](ethyl)methylamine hydrochloride]: 7.62; `COc1cc2c(cc1OCCCN(C)C)[nH]c1ccnc(C3CC3)c12` [Compound 47, [3-({1-cyclopropyl-8-methoxy-5H-pyrido[4,3-b]indol-7-yl}oxy)propyl]dimethylamine hydrochloride]: 8.03.

`COc1cc2c(cc1OCCCN(C)C)[nH]c1ccnc(C#CC(C)(C)O)c12` [Compound 48, 4-{7-[3-(dimethylamino)propoxy]-8-methoxy-5H-pyrido[4,3-b]indol-1-yl}-2-methylbut-3-yn-2-ol hydrochloride] showed a pIC50 of 5.89. For the compound `COc1cc2c(cc1OCCCN(C)C)[nH]c1ccnc(CCC(C)(C)O)c12` [Compound 49, 4-{7-[3-(dimethylamino)propoxy]-8-methoxy-5H-pyrido[4,3-b]indol-1-yl}-2-methylbutan-2-ol hydrochloride], the pIC50 was 7.35. Next, `COc1cc2c(cc1OCCCN(C)C)[nH]c1ccnc(C#CC(C)O)c12` (stereo not shown) [Compound 50, 4-{7-[3-(dimethylamino)propoxy]-8-methoxy-5H-pyrido[4,3-b]indol-1-yl}but-3-yn-2-ol hydrochloride]: 6.16. Regarding `COc1cc2c(cc1OCCCN(C)C)[nH]c1ccnc(C#CC3CC3)c12` [Compound 51, (3-{[1-(2-cyclopropylethynyl)-8-methoxy-5H-pyrido[4,3-b]indol-7-yl]oxy}propyl)dimethylamine hydrochloride], the pIC50 is 6.33.

As for `COc1cc2c(cc1OCCCN(C)C)[nH]c1ccnc(CCC3CC3)c12` [Compound 52, 3-((1-(2-cyclopropylethyl)-8-methoxy-5H-pyrido[4,3-b]indol-7-yl)oxy)-N,N-dimethylpropan-1-amine hydrochloride], the negative-log IC50 (pIC50) was 7.00. Take `COc1cc2c(cc1OCCOCCN(C)C)[nH]c1ccnc(C3CC3)c12` [Compound 53, {2-[2-({1-cyclopropyl-8-methoxy-5H-pyrido[4,3-b]indol-7-yl}oxy)ethoxy]ethyl}dimethylamine hydrochloride]: the pIC50 was 7.21. In turn, `CCCc1nccc2[nH]c3cc(OCCCN(C)C)c(OC)cc3c12` [Compound 55, [3-({8-methoxy-1-propyl-5H-pyrido[4,3-b]indol-7-yl}oxy)propyl]dimethylamine hydrochloride] showed a pIC50 of 7.74. Next, `COc1cc2c(cc1OCCCN(C)C)[nH]c1ccnc(C3CCCC3)c12` [Compound 56, [3-({1-cyclopentyl-8-methoxy-5H-pyrido[4,3-b]indol-7-yl}oxy)propyl]dimethylamine hydrochloride]: 7.82; `CCOCCc1nccc2[nH]c3cc(OCCCN(C)C)c(OC)cc3c12` [Compound 57, (3-{[1-(2-ethoxyethyl)-8-methoxy-5H-pyrido[4,3-b]indol-7-yl]oxy}propyl)dimethylamine hydrochloride]: 7.21. `COCCCc1nccc2[nH]c3cc(OCCCN(C)C)c(OC)cc3c12` [Compound 58, (3-{[8-methoxy-1-(3-methoxypropyl)-5H-pyrido[4,3-b]indol-7-yl]oxy}propyl)dimethylamine hydrochloride] had a pIC50 of 7.07.

Compound `C#Cc1nccc2[nH]c3cc(OCCCN(C)C)c(OC)cc3c12` [Compound 59, [3-({1-ethynyl-8-methoxy-5H-pyrido[4,3-b]indol-7-yl}oxy)propyl]dimethylamine hydrochloride] had a pIC50 of 6.80. Next, `COc1cc2c(cc1OCCCN1CCCC1C)[nH]c1ccnc(C3CC3)c12` (stereo not shown) [Compound 60, 1-[3-({1-cyclopropyl-8-methoxy-5H-pyrido[4,3-b]indol-7-yl}oxy)propyl]-2-methylpyrrolidine hydrochloride]: 7.29; `COc1cc2c(cc1OCCCN(C(C)C)C(C)C)[nH]c1ccnc(C3CC3)c12` [Compound 61, [3-({1-cyclopropyl-8-methoxy-5H-pyrido[4,3-b]indol-7-yl}oxy)propyl]bis(propan-2-yl)amine hydrochloride]: 6.32.

As for `COc1cc2c(cc1OCCCN1CC[C@@H](F)C1)[nH]c1ccnc(C3CC3)c12` [Compound 62, (3R)-1-[3-({1-cyclopropyl-8-methoxy-5H-pyrido[4,3-b]indol-7-yl}oxy)propyl]-3-fluoropyrrolidine hydrochloride], the pIC50 was 7.28.

Compound `COc1cc2c(cc1OCCCN1CC[C@H](F)C1)[nH]c1ccnc(C3CC3)c12` [Compound 63, (3S)-1-[3-({1-cyclopropyl-8-methoxy-5H-pyrido[4,3-b]indol-7-yl}oxy)propyl]-3-fluoropyrrolidine hydrochloride] gave a pIC50 of 6.89. `COc1cc2c(cc1OCCCN1CCCC1)[nH]c1ccnc(C3=CCOCC3)c12` [Compound 64, 1-(3-{[1-(3,6-dihydro-2H-pyran-4-yl)-8-methoxy-5H-pyrido[4,3-b]indol-7-yl]oxy}propyl)pyrrolidine hydrochloride] gave a pIC50 of 7.92. Next, `COc1cc2c(cc1OCCCN1CCCC1)[nH]c1ccnc(C3CCOCC3)c12` [Compound 65, 1-(3-{[8-methoxy-1-(oxan-4-yl)-5H-pyrido[4,3-b]indol-7-yl]oxy}propyl)pyrrolidine hydrochloride]: 8.09; `COc1cc2c(cc1OCCCN(C)C)[nH]c1ccnc(C(C)C)c12` [Compound 67, (3-{[8-methoxy-1-(propan-2-yl)-5H-pyrido[4,3-b]indol-7-yl]oxy}propyl)dimethylamine hydrochloride]: 8.02; `COc1cc2c(cc1OCCCN(C)C)[nH]c1ccnc(C3CCOCC3)c12` [Compound 68, (3-{[8-methoxy-1-(oxan-4-yl)-5H-pyrido[4,3-b]indol-7-yl]oxy}propyl)dimethylamine hydrochloride]: 7.59.

Compound `COc1cc2c(cc1OCCCN(C)C)[nH]c1ccnc(C3CCC3)c12` [Compound 69, [3-({1-cyclobutyl-8-methoxy-5H-pyrido[4,3-b]indol-7-yl}oxy)propyl]dimethylamine hydrochloride] had a pIC50 of 7.52.
